In one series the test system is hepatoma. Briefly: Tumor growth after administration in hepatoma model rat (MRI). Format: in vivo. The following applies: hepatoma SD-rat, 2 mg/kg tail vein, three times every 5 days, one week after last injection.
Series [1] is described as follows: Pharmacokinetics: change in blood plasma concentration as time goes by. The following applies: male, Sprague-Dawley, rat, iv, 10 mg/kg. Here is the method: The Sprague Dawley (SD) adult male rat was slightly anesthetized with ketamine and acepromazine. Then, the femoral vein was subject to cannulation with physiological salt solution and the artery was subject to cannulation with polyethylene tubing (PE-50, intramedic, Clay-Adams) in which the physiological salt solution of 40 I.U./mL was filled, for which the heparin treatment was performed. […] At 0 (blank), 1, 5, 15, 30, 60 and 120 minutes after the administration, the blood 0.3 mL was respectively sampled, which was then centrifugally separated (13,000 rpm, 3 minutes) to separate about 0.1 mL of the blood plasma. Then, it was deproteinated and then analyzed with HPLC.
It was used the HPLC method using a reverse phase C-18 column (Shim-pack CLS-ODS, 4.6 mm I.D. 250 mm L., […] particle diameter). To the sampled blood plasma 0.1 mL were applied an internal standard material solution 50 μL ([…] daunomycin), the methanol 100 μL and the ethyl acetate 1.0 mL. The mixture solution was subject to vortexing for 3 minutes and centrifugally separated for 3 minutes (3,000 rpm) to take the organic layer only (1.0 mL), which was then dried with speed-vac. The remnants were re-composed into a moveable phase of 300 μL and 100 μL of which was then directly injected to a HPLC system. As the moveable phase of the HPLC system, a solution of the deionized water (pH=2.5 by phosphoric acid):acetonitrile=6:4 was used and a flow rate was 1 mL/min. As a HPLC detection method, a fluorescent analysis method was used at 470 nm excitation wavelength and 565 nm emission wavelength. The doxorubicin standard solution for making a calibration curve was made by dissolving it in the methanol so that it became 0.05, 0.1, 0.5, 1 and 3 μg/mL. When preparing a biological sample calibration curve, the standard solution 100 μL of doxorubicin 0.05, 0.1, 0.5, 1 and 3 μg/mL was put instead of methanol 100 μL for pre-treatment. Then, a calibration curve was made from which the doxorubicin in the blood plasma was obtained.

Protocol for hepatoma: In order to make a hepatoma model, the water in which diethyl nitrosamine was diluted in a ratio of 1:10,000 was supplied to 8 weeks old SD-rat every day for 12 weeks until the tumor was generated. […] It was checked with MRI whether the tumor was after 10 weeks breeding. […] Again, the MRI photographing was made. The phleboclysis was performed three times every 5 days. Then, at one week after the last phleboclysis, the sizes of the tumors were compared through the MRI photographing.

The term clearance denotes a measure of how efficiently the substance is removed, as volume per time. Low readings indicate inefficient removal, high ones efficient removal. As a reminder, the half-life is how long it takes for the measured level to halve. The low end stands for fast loss, the high end for slow loss. For orientation: AUC means concentration integrated over time. As for `COc1cccc2c1C(=O)c1c(O)c3c(c(O)c1C2=O)C[C@@](O)(C(=O)CO)C[C@@H]3O[C@H]1C[C@H](N)[C@H](O)[C@H](C)O1` [FD, doxorubicin], the “size of the tumor in MRI photograph” value in the series with hepatoma is listed as “became larger”. In series [1] (in vivo), this compound had a clearance of 37.9 ± 15.8 mL/min/kg and a half-life of 51.6 ± 34 min. In series [1], this compound showed an AUC of 4850 ng·h/mL.

The record behind these values is patent US8389002B2, “Anti-cancer medicine both for diagnosing and treating cancer” (Youl Chon Chemical Co., Ltd., priority 2007, dated 2013).
